The values below are quoted from earlier work in patent US11529374B2, “Extract and formulation including extract” (NIPPON ZOKI PHARMACEUTICAL CO., LTD., priority 2012, dated 2022).

Structures are written as SMILES.

For this data set the following is noted: particularly an effect for non-inflammatory pain diseases such as neuropathic pain disease; Japanese Patent No. 4005115, CN 101600438B.

With `CC(=O)N[C@H]1[C@H]([C@H](O)[C@H](O)CO)OC(O)(C(=O)O)C[C@@H]1O` (stereo partly shown) [N-acetylneuraminic acid], the Analgesic action entry was “has an analgesic action”.
